Assay results as given in patent publication US20060286679A1, “Immunochromatographic method” (Mitsubishi Kagaku latron, Inc., priority 2003, published 2006).

How the values were obtained:
Human whole blood = assay: Observation on hemolysis after mixing whole blood with equal volume of detergent liquid; format: cell-based; further: key: Hml: Hemolyzed; Not hemolyzed; FCD: Failure in chromatographic development
Method: Deionized water, physiological saline (150 mmol/L sodium chloride liquid), and a 10 mmol/L phosphate buffer (pH 7.5, 150 mmol/L sodium chloride) were prepared.
Human whole blood (100 μL) collected using a tube containing heparin anticoagulant was mixed with an equal volume of each detergent liquid (100 μL) to prepare each sample. After 10 minutes from the mixing, hemolysis in each sample was observed visually. The “hemolysis” was judged on the basis of a transparent state caused by a solubilization of erythrocytic membrane and elution of red pigments such as hemoglobin from erythrocytes.
Total concentrations of five detergents in the four mixed liquids were 0.2, 1.0, 5.0, and 20%, respectively.

mite-specific IgE = assay: Enzyme immunochromatographic measurement of specific IgE in hemolyzed whole-blood-derived sample; parameters: species or system human
Method: A nitrocellulose membrane (HF180; pore size=5 to 8 μm; Millipore) was cut into a rectangular piece (5 mm×25 mm). An aqueous solution of extracted mite allergen proteins (1 mg/mL) was applied linearly with a width of 1 mm at the position of 15 mm from an end (upstream) of the membrane. In this connection, the aqueous solution was previously prepared by diluting a Dermatophagoides pteronyssinus extract (Glia) with a 5 mmol/L borate buffer (pH 8.5) and dialyzing the diluted solution.
A plastic adhesive sheet (BioDot) was cut into a rectangular piece (5 mm×60 mm). […] In this connection, adjacent pieces attached on the adhesive sheet were overlapped with each other at a width of approximately 1 mm.
Each aliquot (50 μL) of whole-blood-derived samples prepared by hemolysis and solubilization was dispensed into each well of a microplate. […]
As the above samples, sample 1 (mite-specific IgE=0 IU/mL), sample 2 (mite-specific IgE=3 IU/mL), and sample 3 (mite-specific IgE=10 IU/mL) were used. The amounts of mite-specific IgE were measured by a conventional quantitative analysis (AlaSTAT specific IgE antibody measuring kit; obtained from Iatron and manufactured by DPC, US) and shown by IU/mL, an international standard unit.

[1] = Example 1, detergent liquid 1% (final half), visual, 10 min after mixing
[2] = Example 1, detergent liquid 5% (final half), visual, 10 min after mixing
[3] = Example 1, detergent liquid 20% (final half), visual, 10 min after mixing
[4] = Example 2, detergent liquid 1% (final half)
[5] = Example 2, detergent liquid 5% (final half)
[6] = Example 2, detergent liquid 20% (final half)

| Compound | Hemolysis (Human whole blood; Example 1, detergent liquid 0.2% (final half), visual, 10 min after mixing) | Hemolysis (Human whole blood; [1]) | Hemolysis (Human whole blood; [2]) | Hemolysis (Human whole blood; [3]) | Hemolysis (Human whole blood; Example 2, detergent liquid 0.2% (final half)) | Hemolysis (Human whole blood; [4]) | Hemolysis (Human whole blood; [5]) | Hemolysis (Human whole blood; [6]) | solubilization of whole blood, immunochromatographic staining, and immunochromatographic development (mite-specific IgE) |
| --- | --- | --- | --- | --- | --- | --- | --- | --- | --- |
| CCCCCCCCCCCCOS(=O)(=O)[O-].[Na+] [sodium dodecyl sulfate] | Hml | Hml | Hml | Hml | Hml | Hml | Hml | Hml |  |
| polyethylene glycol mono-para-iso-octylphenyl ester [Triton X-100] |  | Hml | Hml | Hml |  | Hml | Hml | Hml | cannot be performed |
| C[C@H](CCC(=O)NCCC[N+](C)(C)CCCS(=O)(=O)[O-])[C@H]1CC[C@H]2[C@@H]3[C@H](O)C[C@@H]4C[C@H](O)CC[C@]4(C)[C@H]3C[C@H](O)[C@]12C [CHAPS, 3-[(3-cholamido-propyl)dimethyl-ammonio]propanesulfonic acid] |  | Hml | Hml | Hml |  | Hml | Hml | Hml |  |
| CCCCCCCCCCCCCCCCCC[N+](C)(C)CC(=O)[O-] [Amphitol 86B, stearyl betaine] |  | Hml | Hml | Hml |  | Hml | Hml | Hml | cannot be performed |
| polyoxyethylene monolaurate [Tween 20] |  |  |  | Hml |  |  |  | Hml |  |
| polyoxyethylene laurylether [Emulgen 108] |  | Hml | Hml | Hml |  | Hml | Hml | Hml |  |
